The source of these data is patent US11945826B2, “Hydroxypyridoxazepines as NRF2 activators” (GLAXOSMITHKLINE INTELLECTUAL PROPERTY DEVELOPMENT LIMITED, priority 2019, dated 2024).

For experiment [1], the system named is Nrf2 (NQO1 activity in BEAS-2B cells). Kind of experiment: BEAS-2B NQO1 MTT Assay. In kind it is cell-based. The following applies: Homo sapiens, 48 hours, NQO1 specific activity induction, read-out: EC50. From the text: NAD(P)H:quinone oxidoreductase 1 (NQO1), also called DT diaphorase, is a homodimeric FAD-containing enzyme that catalyzes obligatory NAD(P)H-dependent two-electron reductions of quinones and protects cells against the toxic and neoplastic effects of free radicals and reactive oxygen species arising from one-electron reductions. The transcription of NQO1 is finely regulated by Nrf2, and thus NQO1 activity is a good marker for Nrf2 activation. On day one, frozen BEAS-2B cells (ATCC) were thawed in a water bath, counted, and re-suspended at a concentration of 250,000 cells/mL. Fifty microliters of cells were plated in 384 well black clear-bottomed plates. Plates were incubated at 37° C., 5% CO2 overnight. On day two, plates were centrifuged and 50 nL of compound or controls were added to the cells. Plates were then incubated at 37° C., 5% CO2 for 48 hours. On day four, medium was aspirated from the plate and crude cell lysates were made by adding 13 μL of 1× Cell Signalling Technologies lysis buffer with 1 Complete, Mini, EDTA-free Protease Inhibitor Tablet (Roche) for each 10 mL of lysis buffer. After lysis plates were incubated for 20 minutes at room temperature. Two microliters of lysate were removed for use in Cell Titer Glo assay (Promega) and MTT cocktail was prepared (Prochaska et. al. 1998) for measurement of NQO1 activity. Fifty microliters of MTT cocktail was added to each well, plate was centrifuged, and analyzed on an Envision plate reader (Perkin Elmer) using Absorbance 570 nm label for 30 minutes. Product formation was measured kinetically and the pEC50 of NQO1 specific activity induction was calculated by plotting the change in absorbance (Delta OD/min) versus the log of compound concentration followed by 3-parameter fitting.
EC50s<1 nM (+++++), EC50s 1 nM-10 nM (++++), EC50s 10 nM-100 nM (+++), EC50s 100 nM-1 μM (++), EC50s 1 μM-10 μM (+).

Experiment [2] has as its system murine TAC model. In words: Mouse Transverse Aortic Constriction (TAC) Left Ventricular Pressure Overload Model. The conditions noted are these: 10-week mouse TAC, Example 1 at 1, 3, 10 mg/kg/d, Example B at 100 mg/kg/d. In kind it is in vivo, C57BLK/6J mice. The text has this:
Male C57BLK/6J mice (10-12 weeks old) were individually housed and acclimated to a standard powdered rodent diet for 1-3 days. Water was offered ad libitum throughout the study. Mice were initially anesthetized in a chamber using an 3% isoflurane with oxygen (1.0 L/min), and then maintained at 1.5% via nose cone (without intubation). A small incision (˜5 mm) was made just left of midline and just above the rib cage at the level of the suprasternal notch. The muscle tissue was retracted to expose the area above the pleural cavity. The lobes of the thymus were separated and retracted to expose the aortic arch. Fine surgical forceps with blunted tips were used to expose a region above and below the aorta. A micro blunt hook tied with 7-0 silk surgical suture was looped under the aorta and the suture pulled through. The suture was tied-off against a small piece of blunted 27 G needle and the needle was then removed creating the aortic constriction (a 60-70% constriction of the lumen). The incision was closed using 6-0 silk suture for the muscle layer, then the skin with Medbond. The sham procedure was identical without ligation of aorta. Depending on the individual study designs, drug administration began either on the day of surgery, or 1-2 weeks after surgery (detailed in figure legends) and continued until the end of study. Compounds were administered in the mouse chow unless otherwise noted in FIG. 12 legends. TAC study duration was either 6 weeks or 10 weeks in duration. All TAC study endpoints were collected at the end of study. Following heart dissections, samples were either snap frozen in liquid nitrogen and stored at −80° C. or placed in 10% neutral buffered formalin until analysis.
Echocardiography: For mouse TAC studies, echocardiography was performed on a Vevo 2100 high frequency imaging system. Animals were anesthetized with 2-3% isoflurane and sedation maintained with 1% isoflurane with animals on a heating pad. B-mode imaging of three cardiac cycles was used to assess ejection fraction (EF), end diastolic volume (EDV), end systolic volume (ESV), LV mass, and heart rate. ECG was used to measure heart rate during the echocardiography procedure.
NADPH dehydrogenase [quinone]-1 (NQO1) activity: Left ventricular (LV) tissue NQO1 activity was determined using an NQO1 assay kit per manufacturer's protocol (Abcam, Cambridge MA)
The KEAP1 blockers/Nrf2 activators, (R)-3-(1,4-dimethyl-1H-benzo[d][1,2,3]triazol-5-yl)-3-(3-(((R)-2-ethyl-7-hydroxy-2,3-dihydropyrido[2,3-f][1,4]oxazepin-4(5H)-yl)methyl)-4-methylphenyl)propanoic acid, hydrochloride, or a tautomer thereof (Example 1) (in dose-response) and (S)-3-(1,4-dimethyl-1H-benzo[d][1,2,3]triazol-5-yl)-3-(3-(((R)-2-ethyl-2,3-dihydropyrido[3,4-f][1,4]oxazepin-4(5H)-yl)methyl)-4-methylphenyl)-2,2-dimethylpropanoic acid (Example B) were evaluated in a 10-week mouse TAC model of severe hemodynamic stress.
FIG. 12 depicts the effect of the KEAP1-kelch domain blockers/Nrf2 activators (R)-3-(1,4-dimethyl-1H-benzo[d][1,2,3]triazol-5-yl)-3-(3-(((R)-2-ethyl-7-hydroxy-2,3-dihydropyrido[2,3-f][1,4]oxazepin-4(5H)-yl)methyl)-4-methylphenyl)propanoic acid, hydrochloride, or a tautomer thereof (Compound of Example 1) and (S)-3-(1,4-dimethyl-1H-benzo[d][1,2,3]triazol-5-yl)-3-(3-(((R)-2-ethyl-2,3-dihydropyrido[3,4-f][1,4]oxazepin-4(5H)-yl)methyl)-4-methylphenyl)-2,2-dimethylpropanoic acid (Compound B) on cardiac function, remodeling, and NQO1 enzyme activity in the murine 10-week TAC model. All compounds were dosed in chow beginning 2-weeks after TAC. […]

For orientation: EC50 means the concentration needed to bring the measured effect to its halfway point. As for `CC[C@@H]1CN(Cc2cc([C@@H](CC(=O)O)c3ccc4c(nnn4C)c3C)ccc2C)Cc2nc(O)c(F)cc2O1` [Example 22, (R)-3-(1,4-dimethyl-1H-benzo[d][1,2,3]triazol-5-yl)-3-(3-(((R)-2-ethyl-8-fluoro-7-hydroxy-2,3-dihydropyrido[2,3-f][1,4]oxazepin-4(5H)-yl)methyl)-4-methylphenyl)propanoic acid], the EC50 in experiment [1] lay within 1 to 10 nM. Still for that read-out and setting: in the case of `Cc1ccc([C@@H](c2ccc3c(nnn3C)c2C)C(C)(C)C(=O)O)cc1CN1Cc2nc(O)ccc2O[C@@H](C)C1` [Example 23, (S)-3-(1,4-dimethyl-1H-benzo[d][1,2,3]triazol-5-yl)-3-(3-(((S)-7-hydroxy-2-methyl-2,3-dihydropyrido[2,3-f][1,4]oxazepin-4(5H)-yl)methyl)-4-methylphenyl)-2,2-dimethylpropanoic acid] it was 10 to 100 nM; in that of `Cc1ccc([C@@H](c2ccc3c(nnn3C)c2C)C(C)(C)C(=O)O)cc1CN1CCOc2ccc(O)nc2C1` [Example 24, (S)-3-(1,4-dimethyl-1H-benzo[d][1,2,3]triazol-5-yl)-3-(3-((7-hydroxy-2,3-dihydropyrido[2,3-f][1,4]oxazepin-4(5H)-yl)methyl)-4-methylphenyl)-2,2-dimethylpropanoic acid], 10 to 100 nM; in that of `Cc1ccc([C@H](CC(=O)O)c2ccc3c(nnn3C)c2C)cc1CN1Cc2nc(O)ccc2O[C@H](C(F)(F)F)C1` [Example 25, (S)-3-(1,4-dimethyl-1H-benzo[d][1,2,3]triazol-5-yl)-3-(3-(((S)-7-hydroxy-2-(trifluoromethyl)-2,3-dihydropyrido[2,3-f][1,4]oxazepin-4(5H)-yl)methyl)-4-methylphenyl)propanoic acid], 10 to 100 nM. The same measure, in the same setting: the result for `CC[C@]1(C)CN(Cc2cc([C@@H](CC(=O)O)c3ccc4c(nnn4C)c3C)ccc2C)Cc2nc(O)ccc2O1` [Example 26, (R)-3-(1,4-dimethyl-1H-benzo[d][1,2,3]triazol-5-yl)-3-(3-(((R)-2-ethyl-7-hydroxy-2-methyl-2,3-dihydropyrido[2,3-f][1,4]oxazepin-4(5H)-yl)methyl)-4-methylphenyl)propanonic acid] reads 100 to 1000 nM. Still for that read-out and setting: in the case of `CC[C@@]1(C)CN(Cc2cc([C@@H](CC(=O)O)c3ccc4c(nnn4C)c3C)ccc2C)Cc2nc(O)ccc2O1` [Example 27, (R)-3-(1,4-dimethyl-1H-benzo[d][1,2,3]triazol-5-yl)-3-(3-(((S)-2-ethyl-7-hydroxy-2-methyl-2,3-dihydropyrido[2,3-f][1,4]oxazepin-4(5H)-yl)methyl)-4-methylphenyl)propanonic acid] it was 10 to 100 nM; in that of `Cc1ccc([C@H](CC(=O)O)c2ccc3c(nnn3C)c2C)cc1CN1Cc2nc(O)ccc2O[C@@H](C(F)(F)F)C1` [Example 28, (S)-3-(1,4-dimethyl-1H-benzo[d][1,2,3]triazol-5-yl)-3-(3-(((R)-7-hydroxy-2-(trifluoromethyl)-2,3-dihydropyrido[2,3-f][1,4]oxazepin-4(5H)-yl)methyl)-4-methylphenyl)propanoic acid], 1000 to 10000 nM. For the compound `Cc1ccc([C@@H](CC(=O)O)c2ccc3c(nnn3C)c2C)cc1CN1Cc2nc(O)ccc2OC2(CCC2)C1` [Example 29], in experiment [1], the EC50 was 10 to 100 nM. On to `Cc1ccc([C@@H](CC(=O)O)c2ccc3c(nnn3C)c2C)cc1CN1Cc2nc(O)ccc2O[C@H](C(C)(C)C)C1` [Example 30, (R)-3-(3-(((R)-2-(tert-butyl)-7-hydroxy-2,3-dihydropyrido[2,3-f][1,4]oxazepin-4(5H)-yl)methyl)-4-methylphenyl)-3-(1,4-dimethyl-1H-benzo[d][1,2,3]triazol-5-yl)propanoic acid], for which, in experiment [1], the half-maximal effective concentration (EC50) is 10 to 100 nM. For the compound `CC[C@@H]1CN(Cc2cc([C@@H](c3ccc4c(nnn4C)c3C)C(C)(C)C(=O)O)ccc2C)Cc2cnccc2O1` [Example B, (S)-3-(1,4-dimethyl-1H-benzo[d][1,2,3]triazol-5-yl)-3-(3-(((R)-2-ethyl-2,3-dihydropyrido[3,4-f][1,4]oxazepin-4(5H)-yl)methyl)-4-methylphenyl)-2,2-dimethylpropanoic acid, reference compound], the “cardiac function as assessed by ejection fraction” value in experiment [2] (daily in chow for eight weeks from 2 weeks after TAC) is on record as “full normalization of cardiac function”. In experiment [2] (daily in chow for eight weeks), the “NAD(P)H quinone oxidoreductase 1 (NQO1) in the LV” value is “significant dose-related elevations”; the “cardiac hypertrophy (left ventricular mass)” value was “did not influence cardiac hypertrophy”; the “unloading the heart (blood pressure) or heart rate” value is “nor did the ejection fraction change occur by unloading the heart (i.e., lowering blood pressure) or increasing the heart rate”.
